Data as given in US9376425B2, “Heterocyclic compounds as MDM2 inhibitors for the treatment of cancer” (AMGEN INC., priority 2011, dated 2016).

What follows are compounds tested against T1, human MDM2 (GST-hMDM2 1-188), interaction with biotinylated-p53 (1-83) (Homo sapiens, UniProt Q00987) (assay: improved HTRF assay (HTRF2 assay), inhibition of HDM2-p53 interaction). Conditions: 0.2 nM GST-hMDM2, 0.5 nM biotinylated-p53, 100 mM KF.
T1 construct: Amino acid residues 1-188 of human MDM2 were expressed; made in house; host or cells: Escherichia coli
T1 sequence (Q00987 1-188): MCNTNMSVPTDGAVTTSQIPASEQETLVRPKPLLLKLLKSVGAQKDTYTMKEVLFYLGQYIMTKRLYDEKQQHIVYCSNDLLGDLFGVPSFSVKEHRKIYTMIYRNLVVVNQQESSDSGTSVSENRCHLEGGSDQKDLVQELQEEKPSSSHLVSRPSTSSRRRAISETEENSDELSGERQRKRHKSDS
Type: binding
In short: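 GST-hMDM2 preincubated 20 min at RT with serially diluted compound, then biotinylated p53 (1-83, E. coli) added for 60 min. Detection with SA-XLent, anti-GST cryptate and KF, equilibrated >4 h; final DMSO 2%. TR-FRET read; % inhibition calculated relative to nutlin-3.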

| Structure (SMILES) | IC50 |
| --- | --- |
| CC(C)S(=O)(=O)C[C@H](C1CC1)N1C(=O)[C@@H](CC(=O)O)O[C@H](c2cccc(Cl)c2)[C@H]1c1ccc(Cl)cc1 (single isomer, unassigned) [Example 157, 2-((2R,5R,6R)-6-(3-chlorophenyl)-5-(4-chlorophenyl)-4-((S)-1-cyclopropyl-2-(isopropylsulfonyl)ethyl)-3-oxomorpholin-2-yl)acetic acid or 2-((2S,5R,6R)-6-(3-chlorophenyl)-5-(4-chlorophenyl)-4-((S)-1-cyclopropyl-2-(isopropylsulfonyl)ethyl)-3-oxomorpholin-2-yl)acetic acid] | 1 nM |
| CC(C)(C)S(=O)(=O)C[C@H](C1CC1)N1C(=O)[C@@H](CC(=O)O)O[C@H](c2cccc(Cl)c2F)[C@H]1c1ccc(Cl)cc1.CC(C)(C)S(=O)(=O)C[C@H](C1CC1)N1C(=O)[C@H](CC(=O)O)O[C@H](c2cccc(Cl)c2F)[C@H]1c1ccc(Cl)cc1 (mixture of isomers) [Example 326, 2-((2R,5R,6R)-4-((S)-2-(tert-Butylsulfonyl)-1-cyclopropylethyl)-6-(3-chloro-2-fluorophenyl)-5-(4-chlorophenyl)-3-oxomorpholin-2-yl)acetic acid and 2-((2S,5R,6R)-4-((S)-2-(tert-butylsulfonyl)-1-cyclopropylethyl)-6-(3-chloro-2-fluorophenyl)-5-(4-chlorophenyl)-3-oxomorpholin-2-yl)acetic acid] | < 1 nM |
| CC[C@@H](CS(=O)(=O)C(C)(C)C)N1C(=O)[C@@H](CNC(=O)OC(C)(C)C)O[C@H](c2cccc(Cl)c2)[C@H]1c1ccc(Cl)cc1 [Example 377, tert-Butyl (((2R,5R,6R)-4-((S)-1-(tert-utylsulfonyl)butan-2-yl)-6-(3-chlorophenyl)-5-(4-chlorophenyl)-3-oxomorpholin-2-yl)methyl)carbamate and tert-butyl (((2S,5R,6R)-4-((S)-1-(tert-butylsulfonyl)butan-2-yl)-6-(3-chlorophenyl)-5-(4-chlorophenyl)-3-oxomorpholin-2-yl)methyl)carbamate] | 86 nM |
| CC(C)(C)S(=O)(=O)C[C@H](C1CC1)N1C(=O)[C@@](C)(CC(=O)O)O[C@H](c2cccc(Cl)c2)[C@H]1c1ccc(Cl)cc1 (single isomer, unassigned) [Example 335, 2-((2R,5R,6R)-4-((S)-2-(tert-Butylsulfonyl)-1-cyclopropylethyl)-6-(3-chlorophenyl)-5-(4-chlorophenyl)-2-methyl-3-oxomorpholin-2-yl)acetic acid or 2-((2S,5R,6R)-4-((S)-2-(tert-butylsulfonyl)-1-cyclopropylethyl)-6-(3-chlorophenyl)-5-(4-chlorophenyl)-2-methyl-3-oxomorpholin-2-yl)acetic acid] | 3 nM |
| CC(C)(C)S(=O)(=O)C[C@H](C1CC1)N1C(=O)[C@@H](CC(=O)NCC#N)O[C@H](c2cccc(Cl)c2)[C@H]1c1ccc(Cl)cc1 (single isomer, unassigned) [Example 349, 2-((2R,5R,6R)-4-((S)-2-(tert-Butylsulfonyl)-1-cyclopropylethyl)-6-(3-chlorophenyl)-5-(4-chlorophenyl)-3-oxomorpholin-2-yl)-N-(cyanomethyl)acetamide or 2-((2S,5R,6R)-4-((S)-2-(tert-butylsulfonyl)-1-cyclopropylethyl)-6-(3-chlorophenyl)-5-(4-chlorophenyl)-3-oxomorpholin-2-yl)-N-(cyanomethyl)acetamide] | 1 nM |
| O=C(O)C[C@H]1O[C@H](c2cccc(Cl)c2)[C@@H](c2ccc(Cl)c(F)c2)N([C@H](CN(c2ccccc2F)S(=O)(=O)C2CC2)C2CC2)C1=O (single isomer, unassigned) [Example 314, 2-((2R,5R,6R)-5-(4-Chloro-3-fluorophenyl)-6-(3-chlorophenyl)-4-((S)-1-cyclopropyl-2-(N-(2-fluorophenyl)cyclopropanesulfonamido)ethyl)-3-oxomorpholin-2-yl)acetic acid or 2-((2S,5R,6R)-5-(4-chloro-3-fluorophenyl)-6-(3-chlorophenyl)-4-((S)-1-cyclopropyl-2-(N-(2-fluorophenyl)cyclopropanesulfonamido)ethyl)-3-oxomorpholin-2-yl)acetic acid] | < 1 nM |
| CC(C)S(=O)(=O)[C@H]1CCC[C@@H]1N1C(=O)[C@@H](CC(=O)O)O[C@H](c2cccc(Cl)c2)[C@H]1c1ccc(Cl)cc1 (single isomer, unassigned) [Example 422] | 3 nM |
| NC(=O)C[C@H]1O[C@H](c2cccc(Cl)c2)[C@@H](c2ccc(Cl)cc2)N([C@H](CN(c2c(F)cccc2F)S(=O)(=O)C2CC2)C2CC2)C1=O (single isomer, unassigned) [Example 359, 2-((2R,5R,6R)-6-(3-Chlorophenyl)-5-(4-chlorophenyl)-4-((S)-1-cyclopropyl-2-(N-(2,6-difluorophenyl)cyclopropanesulfonamido)ethyl)-3-oxomorpholin-2-yl)acetamide or 2-((2S,5R,6R)-6-(3-chlorophenyl)-5-(4-chlorophenyl)-4-((S)-1-cyclopropyl-2-(N-(2,6-difluorophenyl)cyclopropanesulfonamido)ethyl)-3-oxomorpholin-2-yl)acetamide] | < 1 nM |
| CC(C)[C@@H](CN(c1ccccc1F)S(=O)(=O)C(C)C)N1C(=O)[C@@H](CC(=O)O)O[C@H](c2cccc(Cl)c2)[C@H]1c1ccc(Cl)cc1 (single isomer, unassigned) [Example 199, 2-((2R,5R,6R)-6-(3-chlorophenyl)-5-(4-chlorophenyl)-4-((S)-1-(N-(2-fluorophenyl)propan-2-ylsulfonamido)-3-methylbutan-2-yl)-3-oxomorpholin-2-yl)acetic acid or 2-((2S,5R,6R)-6-(3-chlorophenyl)-5-(4-chlorophenyl)-4-((S)-1-(N-(2-fluorophenyl)propan-2-ylsulfonamido)-3-methylbutan-2-yl)-3-oxomorpholin-2-yl)acetic acid] | 1 nM |
| O=C(O)C[C@H]1O[C@H](c2cccc(Cl)c2)[C@@H](c2ccc(Cl)cc2)N([C@H](CN(c2ccccc2F)S(=O)(=O)C2CC2)C(F)(F)F)C1=O (single isomer, unassigned) [Example 274] | 4 nM |
| C[C@@H](CS(=O)(=O)C(C)(C)C)N1C(=O)[C@@H](CC(N)=O)O[C@H](c2cccc(Cl)c2)[C@H]1c1ccc(Cl)cc1 (single isomer, unassigned) [Example 225, 2-((2R,5R,6R)-4-((S)-1-(tert-butylsulfonyl)propan-2-yl)-6-(3-chlorophenyl)-5-(4-chlorophenyl)-3-oxomorpholin-2-yl)acetamide or 2-((2S,5R,6R)-4-((S)-1-(tert-butylsulfonyl)propan-2-yl)-6-(3-chlorophenyl)-5-(4-chlorophenyl)-3-oxomorpholin-2-yl)acetamide] | 6 nM |
| CC[C@@H](CS(=O)(=O)[C@H](C)C(C)C)N1C(=O)[C@H](CC(=O)O)O[C@H](c2cccc(Cl)c2)[C@H]1c1ccc(Cl)cc1 (single isomer, unassigned) [Example 282] | 2 nM |
| CC[C@@H](CN(c1ccccc1F)S(=O)(=O)C1CC1)N1C(=O)[C@@H]([C@@H](C)C(=O)O)O[C@H](c2cccc(Cl)c2)[C@H]1c1ccc(Cl)cc1 (single isomer, unassigned) [Example 254] | 1 nM |
| CC[C@@H](CN(c1ccccc1F)S(=O)(=O)C1CC1)N1C(=O)[C@@](C)(CC(=O)O)O[C@H](c2cccc(Cl)c2)[C@H]1c1ccc(Cl)cc1 (single isomer, unassigned) [Example 329, 2-((2R,5R,6R)-6-(3-Chlorophenyl)-5-(4-chlorophenyl)-4-((S)-1-(N-(2-fluorophenyl)cyclopropanesulfonamido)butan-2-yl)-2-methyl-3-oxomorpholin-2-yl)acetic acid or 2-((2S,5R,6R)-6-(3-chlorophenyl)-5-(4-chlorophenyl)-4-((S)-1-(N-(2-fluorophenyl)cyclopropanesulfonamido)butan-2-yl)-2-methyl-3-oxomorpholin-2-yl)acetic acid] | 138 nM |
| O=C(O)C[C@H]1O[C@H](c2cccc(Cl)c2)[C@@H](c2ccc(Cl)cc2)N([C@H](CN(c2ccccc2F)S(=O)(=O)C2CC2)C2CC2)C1=O (single isomer, unassigned) [Example 158, 2-((2R,5R,6R)-6-(3-chlorophenyl)-5-(4-chlorophenyl)-4-((S)-1-cyclopropyl-2-(N-(2-fluorophenyl)cyclopropanesulfonamido)ethyl)-3-oxomorpholin-2-yl)acetic acid or 2-((2S,5R,6R)-6-(3-chlorophenyl)-5-(4-chlorophenyl)-4-((S)-1-cyclopropyl-2-(N-(2-fluorophenyl)cyclopropanesulfonamido)ethyl)-3-oxomorpholin-2-yl)acetic acid] | < 1 nM |
| CC[C@@H](CS(=O)(=O)CCN(C)C)N1C(=O)[C@@H](CC(=O)O)O[C@H](c2cccc(Cl)c2)[C@H]1c1ccc(Cl)cc1 (single isomer, unassigned) [Example 247, 2-((2R,5R,6R)-6-(3-chlorophenyl)-5-(4-chlorophenyl)-4-((S)-1-((2-(dimethylamino)ethyl)sulfonyl)butan-2-yl)-3-oxomorpholin-2-yl)acetic acid or 2-((2S,5R,6R)-6-(3-chlorophenyl)-5-(4-chlorophenyl)-4-((S)-1-((2-(dimethylamino)ethyl)sulfonyl)butan-2-yl)-3-oxomorpholin-2-yl)acetic acid] | 3 nM |
| CC[C@@H](CS(=O)(=O)C(C)(C)C)N1C(=O)[C@@H](C[C@@H](O)CO)O[C@H](c2cccc(Cl)c2)[C@H]1c1ccc(Cl)cc1 (single isomer, unassigned) [Example 371] | 15 nM |
